Earlier results as cited in patent publication US12478679B2, “Pharmaceutical carrier for active substances and a pharmaceutical composition containing said carrier” (BIOTTS S A, priority 2019, dated 2025).
Read-outs that look alike come from different tables or passages of the source.

Tests used:
[1] = rats
[2] = mice

COc1cc(/C=C/C(=O)CC(=O)/C=C/c2ccc(O)c(OC)c2)ccc1O [curcumin]
ED50, average effective dose in the carrageenan test [1]: 48 mg/kg | ED50, average effective dose in the carrageenan test ([2]; first series): 100.2 mg/kg | ED50 ([2]; series of turmeric extracts and curcumin alone): 8.7 mg/kg
